The assay has as its system androgen receptor (AR) in LNCaP and/or VCaP cells. As to the kind of experiment: Androgen Receptor ELISA assay (AR degradation). It counts as cell-based. In a few lines:
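VCaP cells grown ≥3 days, then treated 5 h with compound in media containing 1 nM R1881 (10× stock). Cells lysed and AR quantified by sandwich ELISA (mouse AR detection Ab, HRP anti-mouse, TMB). DC50 and Dmax derived from AR degradation.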
On the technique in general: ELISA stands for enzyme-linked immunosorbent assay.

Where [1] appears, read: LNCaP and/or VCaP cells, 5 hours incubation, media with R1881, read-out: DC50 Code* (degradation of AR ELISA).
[2] abbreviates: degradation of AR ELISA in LNCaP and/or VCaP cells, Table 2C, read-out: DC50 Code*.

The record followed here is US20260053932A1, “COMPOUNDS AND METHODS FOR THE TARGETED DEGRADATION OF ANDROGEN RECEPTOR AND ASSOCIATED METHODS OF USE” (Arvinas Operations, Inc., priority 2020, published 2026).

Where two headings read alike, the source gives them in different places.

Consider `N#Cc1ccc(O[C@H]2CC[C@H](NC(=O)c3cnc(N4CCC(CN(C5CCOC5)[C@H]5C[C@H](Oc6ccc7c(c6)C(=O)N(C6CCC(=O)NC6=O)C7=O)C5)CC4)cn3)CC2)cc1Cl` (some centres unmarked) [Compound 62, N-((1r,4r)-4-(3-chloro-4-cyanophenoxy)cyclohexyl)-5-(4-((((1r,3r)-3-((2-(2,6-dioxopiperidin-3-yl)-1,3-dioxoisoindolin-5-yl)oxy)cyclobutyl) (tetrahydrofuran-3-yl)amino)methyl)piperidin-1-yl)pyrazine-2-carboxamide], for which, under setting [1], the DC50 was less than 1 nM. `COc1cc(O[C@H]2CC[C@H](NC(=O)c3cnc(N4CCC(CN(C(C)C)[C@H]5C[C@H](Oc6ccc7c(c6)C(=O)N(C6CCC(=O)NC6=O)C7)C5)CC4)nc3)CC2)ccc1C#N` (some centres unmarked) [Compound 63, N-((1r,4r)-4-(4-cyano-3-methoxyphenoxy)cyclohexyl)-2-(4-((((1r,3r)-3-((2-(2,6-dioxopiperidin-3-yl)-3-oxoisoindolin-5-yl)oxy)cyclobutyl) (isopropyl)amino)methyl)piperidin-1-yl)pyrimidine-5-carboxamide]: the DC50 under setting [1] is less than 1 nM. The same measure, in the same setting: the result for `CCOc1cc(O[C@H]2CC[C@H](NC(=O)c3cnc(N4CCC(CN(C(C)C)[C@H]5C[C@H](Oc6ccc7c(c6)C(=O)N(C6CCC(=O)NC6=O)C7=O)C5)CC4)cn3)CC2)ccc1C#N` (some centres unmarked) [Compound 64, N-((1r,4r)-4-(4-cyano-3-ethoxyphenoxy)cyclohexyl)-5-(4-((((1r,3r)-3-((2-(2,6-dioxopiperidin-3-yl)-1,3-dioxoisoindolin-5-yl)oxy)cyclobutyl) (isopropyl)amino)methyl)piperidin-1-yl)pyrazine-2-carboxamide] reads less than 1 nM. Consider `CC(C)N(CC1CCN(c2cnc(C(=O)N[C@H]3CC[C@H](Oc4ccc(C#N)c(Cl)c4)CC3)cn2)CC1)[C@H]1C[C@H](Oc2ccc3c(c2)C2(CC2)N(C2CCC(=O)NC2=O)C3=O)C1` (some centres unmarked) [Compound 65, N-((1r,4r)-4-(3-chloro-4-cyanophenoxy)cyclohexyl)-5-(4-((((1r,3r)-3-((2′-(2,6-dioxopiperidin-3-yl)-3′-oxospiro[cyclopropane-1,1′-isoindolin]-6′-yl)oxy)cyclobutyl) (isopropyl)amino)methyl)piperidin-1-yl)pyrazine-2-carboxamide], for which the DC50 under setting [1] was less than 1 nM. In the case of `CC(C)N(CC1CN(c2ncc(C(=O)N[C@H]3CC[C@H](Oc4ccc(C#N)c(Cl)c4)CC3)cn2)C1)[C@H]1C[C@H](Oc2ccc3c(c2)C(=O)N(C2CCC(=O)NC2=O)C3=O)C1` (some centres unmarked) [Compound 66, N-((1r,4r)-4-(3-chloro-4-cyanophenoxy)cyclohexyl)-2-(3-((((1r,3r)-3-((2-(2,6-dioxopiperidin-3-yl)-1,3-dioxoisoindolin-5-yl)oxy)cyclobutyl) (isopropyl)amino)methyl)azetidin-1-yl)pyrimidine-5-carboxamide], the DC50 under setting [1] was less than 1 nM.

On to `COCCN(CC1CCN(c2cnc(C(=O)N[C@H]3CC[C@H](Oc4ccc(C#N)c(OC)c4)CC3)cn2)CC1)[C@H]1C[C@H](Oc2ccc3c(c2)C(=O)N(C2CCC(=O)NC2=O)C3=O)C1` (some centres unmarked) [Compound 68, N-((1r,4r)-4-(4-cyano-3-methoxyphenoxy)cyclohexyl)-5-(4-((((1r,3r)-3-((2-(2,6-dioxopiperidin-3-yl)-1,3-dioxoisoindolin-5-yl)oxy)cyclobutyl)(2-methoxyethyl)amino)methyl)piperidin-1-yl)pyrazine-2-carboxamide], for which the DC50 under setting [1] is less than 1 nM.

Regarding `CC1(N2C(=O)c3cc(F)c(N4CCN(CC5CCN(c6ccc(C(=O)N[C@H]7CC[C@H](Oc8ccc(C#N)c(Cl)c8)CC7)nn6)CC5)CC4)cc3C2=O)CCC(=O)NC1=O` (some centres unmarked) [Compound 69, N-((1r,4r)-4-(3-chloro-4-cyanophenoxy)cyclohexyl)-6-(4-((4-(6-fluoro-2-(3-methyl-2,6-dioxopiperidin-3-yl)-1,3-dioxoisoindolin-5-yl)piperazin-1-yl)methyl)piperidin-1-yl)pyridazine-3-carboxamide], the DC50 under setting [1] was less than 1 nM. `CCOc1cc(O[C@H]2CC[C@H](NC(=O)c3cnc(N4CC(CN(C(C)C)[C@H]5C[C@H](Oc6ccc7c(c6)C(=O)N(C6CCC(=O)NC6=O)C7=O)C5)C4)nc3)CC2)ccc1C#N` (some centres unmarked) [Compound 70, N-((1r,4r)-4-(4-cyano-3-ethoxyphenoxy)cyclohexyl)-2-(3-((((1r,3r)-3-((2-(2,6-dioxopiperidin-3-yl)-1,3-dioxoisoindolin-5-yl)oxy)cyclobutyl) (isopropyl)amino)methyl)azetidin-1-yl)pyrimidine-5-carboxamide]: the DC50 under setting [1] lay in the range of 1 to 10 nM. The same measure, in the same setting: for `N#Cc1ccc(O[C@H]2CC[C@H](NC(=O)c3ccn(C4CCC(CN5CCN(c6ccc7c(c6)CN(C6CCC(=O)NC6=O)C7=O)CC5)CC4)n3)CC2)cc1Cl` (some centres unmarked) [Compound 71, N-((1r,4r)-4-(3-chloro-4-cyanophenoxy)cyclohexyl)-1-(4-((4-(2-(2,6-dioxopiperidin-3-yl)-1-oxoisoindolin-5-yl)piperazin-1-yl)methyl)cyclohexyl)-1H-pyrazole-3-carboxamide] the value was 1 to 10 nM; for `CC1(C)[C@H](NC(=O)c2ccn([C@H]3CC[C@H](CCCOc4ccc5c(c4)C(=O)N(C4CCC(=O)NC4=O)C5=O)CC3)n2)C(C)(C)[C@H]1Oc1ccc(C#N)c(Cl)c1` (stereo partly drawn) [Compound 72, N-((1r,3R)-3-(3-chloro-4-cyanophenoxy)-2,2,4,4-tetramethylcyclobutyl)-1-((1r,4R)-4-(3-((2-(2,6-dioxopiperidin-3-yl)-1,3-dioxoisoindolin-5-yl)oxy)propyl)cyclohexyl)-1H-pyrazole-3-carboxamide], more than 100 nM; for `CC(C)N(CC1CCN(c2cnc(C(=O)N[C@H]3CC[C@H](Oc4ccc(C#N)c(Cl)c4)CC3)cn2)CC1)[C@H]1C[C@H](Oc2ccc3c(c2)C(=O)N(C2CCC(=O)NC2=O)C32CC2)C1` (some centres unmarked) [Compound 73, N-((1r,4r)-4-(3-chloro-4-cyanophenoxy)cyclohexyl)-5-(4-((((1r,3r)-3-((2′-(2,6-dioxopiperidin-3-yl)-3′-oxospiro[cyclopropane-1,1′-isoindolin]-5′-yl)oxy)cyclobutyl) (isopropyl)amino)methyl)piperidin-1-yl)pyrazine-2-carboxamide], more than 100 nM. Still for that read-out and setting: for `CN1C(=O)CCC(N2C(=O)c3cc(F)c(N4CCN(CC5CCN(c6ccc(C(=O)N[C@H]7CC[C@H](Oc8ccc(C#N)c(Cl)c8)CC7)nn6)CC5)CC4)cc3C2=O)C1=O` (some centres unmarked) [Compound 74, N-((1r,4r)-4-(3-chloro-4-cyanophenoxy)cyclohexyl)-6-(4-((4-(6-fluoro-2-(1-methyl-2,6-dioxopiperidin-3-yl)-1,3-dioxoisoindolin-5-yl)piperazin-1-yl)methyl)piperidin-1-yl)pyridazine-3-carboxamide] the value was more than 100 nM; for `CC(C)N(CC1CCN(c2cnc(C(=O)N[C@H]3CC[C@H](Oc4ccc(C#N)c(Cl)c4)CC3)cn2)CC1)[C@H]1C[C@H](Oc2ccc3c(c2)C(=O)N([C@@H]2C(=O)NC(=O)C[C@H]2C)C3=O)C1` [Compound 75, N-((1r,4r)-4-(3-chloro-4-cyanophenoxy)cyclohexyl)-5-(4-((isopropyl((1S,3r)-3-((2-((3S,4R)-4-methyl-2,6-dioxopiperidin-3-yl)-1,3-dioxoisoindolin-5-yl)oxy)cyclobutyl)amino)methyl)piperidin-1-yl)pyrazine-2-carboxamide], more than 100 nM; for `CC(C)N(CC1CCN(c2cnc(C(=O)N[C@H]3CC[C@H](Oc4ccc(C#N)c(Cl)c4)CC3)cn2)CC1)[C@H]1C[C@H](Oc2ccc3c(c2)C(=O)N([C@@H]2C(=O)NC(=O)C[C@@H]2C)C3=O)C1` [Compound 76, N-((1r,4r)-4-(3-chloro-4-cyanophenoxy)cyclohexyl)-5-(4-((isopropyl((1S,3r)-3-((2-((3S,4S)-4-methyl-2,6-dioxopiperidin-3-yl)-1,3-dioxoisoindolin-5-yl)oxy)cyclobutyl)amino)methyl)piperidin-1-yl)pyrazine-2-carboxamide], more than 100 nM. Regarding `COc1cc(O[C@H]2C[C@H](N(CC3CCN(c4cnc(C(=O)N[C@H]5CC[C@H](Oc6ccc(C#N)c(C)c6)CC5)cn4)CC3)C(C)C)C2)cc2c1C(=O)N(C1CCC(=O)NC1=O)C2=O` (some centres unmarked) [Compound 78, N-((1r,4r)-4-(4-cyano-3-methylphenoxy)cyclohexyl)-5-(4-((((1r,3r)-3-((2-(2,6-dioxopiperidin-3-yl)-7-methoxy-1,3-dioxoisoindolin-5-yl)oxy)cyclobutyl) (isopropyl)amino)methyl)piperidin-1-yl)pyrazine-2-carboxamide], the DC50 under setting [1] is less than 1 nM. With `COc1cc2c(cc1O[C@H]1C[C@H](N(CC3CCN(c4cnc(C(=O)N[C@H]5C(C)(C)[C@H](Oc6cc(C)c(C#N)c(C)c6)C5(C)C)cn4)CC3)C(C)C)C1)C(=O)N(C1CCC(=O)NC1=O)C2=O` (some centres unmarked) [Compound 199, N-((1r,3r)-3-(4-cyano-3,5-dimethylphenoxy)-2,2,4,4-tetramethylcyclobutyl)-5-(4-((((1r,3r)-3-((2-(2,6-dioxopiperidin-3-yl)-6-methoxy-1,3-dioxoisoindolin-5-yl)oxy)cyclobutyl)(isopropyl)amino)methyl)piperidin-1-yl)pyrazine-2-carboxamide], the DC50 under setting [2] was less than 1 nM.

For the compound `CCN(CC1CCN(c2cnc(C(=O)N[C@H]3C(C)(C)[C@H](Oc4cc(C)c(C#N)c(C)c4)C3(C)C)cn2)CC1)[C@H]1C[C@H](Oc2cc(OC)c3c(c2)C(=O)N(C2CCC(=O)NC2=O)C3=O)C1` (some centres unmarked) [Compound 207, N-((1r,3r)-3-(4-cyano-3,5-dimethylphenoxy)-2,2,4,4-tetramethylcyclobutyl)-5-(4-((((1r,3r)-3-((2-(2,6-dioxopiperidin-3-yl)-7-methoxy-1,3-dioxoisoindolin-5-yl)oxy)cyclobutyl)(ethyl)amino)methyl)piperidin-1-yl)pyrazine-2-carboxamide], under setting [2], the 50% degradation concentration (DC50) is less than 1 nM.

The DC50 is the concentration at which degradation of the target reaches its halfway point.
